# Test results taken from PubChem BioAssay (NCI).
#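 In this assay, cells in 96-well plates receive the compound at five concentrations for 48 hours. Endpoints are linearly interpolated between the surrounding concentrations. Definition used: TGI = concentration required for complete inhibition of growth.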
# How the values were obtained:
# Experiment in all cases: NCI tumour cell line growth inhibition, 48 h
# UACC-62 melanoma = test system: UACC-62 melanoma
# NCI-H522 lung = test system: NCI-H522 lung
# SK-MEL-28 melanoma = test system: SK-MEL-28 melanoma
# SF-295 CNS = test system: SF-295 CNS
# MDA-MB-231 breast = test system: MDA-MB-231 breast
# NCI/ADR-RES ovarian = test system: NCI/ADR-RES ovarian
# CCRF-CEM leukemia = test system: CCRF-CEM leukemia
# SK-MEL-2 melanoma = test system: SK-MEL-2 melanoma
# K-562 leukemia = test system: K-562 leukemia
# MDA-N = test system: MDA-N
# OVCAR-8 ovarian = test system: OVCAR-8 ovarian
# RPMI-8226 leukemia = test system: RPMI-8226 leukemia
# LOX IMVI melanoma = test system: LOX IMVI melanoma
# CAKI-1 renal = test system: CAKI-1 renal
# 786-0 renal = test system: 786-0 renal
# NCI-H23 lung = test system: NCI-H23 lung
# TK-10 renal = test system: TK-10 renal
# SF-268 CNS = test system: SF-268 CNS
# HCT-15 colon = test system: HCT-15 colon
# RXF 393 renal = test system: RXF 393 renal
# SNB-19 CNS = test system: SNB-19 CNS
# BT-549 breast = test system: BT-549 breast
# SK-OV-3 ovarian = test system: SK-OV-3 ovarian
# HCT-116 colon = test system: HCT-116 colon
# KM12 colon = test system: KM12 colon
# OVCAR-5 ovarian = test system: OVCAR-5 ovarian
# M14 melanoma = test system: M14 melanoma
# COLO 205 colon = test system: COLO 205 colon
# A498 renal = test system: A498 renal
# MCF7 breast = test system: MCF7 breast
# T-47D breast = test system: T-47D breast
# HCC-2998 colon = test system: HCC-2998 colon
# U251 CNS = test system: U251 CNS
# SK-MEL-5 melanoma = test system: SK-MEL-5 melanoma
# NCI-H460 lung = test system: NCI-H460 lung
# IGROV1 ovarian = test system: IGROV1 ovarian
# SN12C renal = test system: SN12C renal
# SR leukemia = test system: SR leukemia
# OVCAR-3 ovarian = test system: OVCAR-3 ovarian
# MALME-3M melanoma = test system: MALME-3M melanoma
# MDA-MB-435 = test system: MDA-MB-435
# PC-3 prostate = test system: PC-3 prostate
# HOP-62 NSCLC = test system: HOP-62 NSCLC
# EKVX NSCLC = test system: EKVX NSCLC
# HT29 colon = test system: HT29 colon
# SNB-75 CNS = test system: SNB-75 CNS
# HOP-92 NSCLC = test system: HOP-92 NSCLC
# UO-31 renal = test system: UO-31 renal
# SF-539 CNS = test system: SF-539 CNS
# SW-620 colon = test system: SW-620 colon
# A549 NSCLC = test system: A549 NSCLC
# UACC-257 melanoma = test system: UACC-257 melanoma
# DU-145 prostate = test system: DU-145 prostate
# NCI-H226 lung = test system: NCI-H226 lung
# ACHN renal = test system: ACHN renal
# HL-60(TB) leukemia = test system: HL-60(TB) leukemia
# MOLT-4 leukemia = test system: MOLT-4 leukemia
# OVCAR-4 ovarian = test system: OVCAR-4 ovarian
structure (smiles),measurement,setting,value
CC(C)Oc1cc2c(cc1O)CC[C@@H]1[C@@H]2CC[C@]2(C)[C@@H](O)CC[C@@H]12,TGI,UACC-62 melanoma,13.2 µM
same,TGI,NCI-H522 lung,6.75 µM
same,TGI,SK-MEL-28 melanoma,56.6 µM
same,TGI,SF-295 CNS,11.8 µM
same,TGI,MDA-MB-231 breast,26.6 µM
same,TGI,NCI/ADR-RES ovarian,19.9 µM
same,TGI,CCRF-CEM leukemia,> 39.8 µM
same,TGI,SK-MEL-2 melanoma,> 24.8 µM
same,TGI,K-562 leukemia,30.8 µM
same,TGI,MDA-N,3.6 µM
same,TGI,OVCAR-8 ovarian,60.6 µM
same,TGI,RPMI-8226 leukemia,35.7 µM
same,TGI,LOX IMVI melanoma,18.3 µM
same,TGI,CAKI-1 renal,> 20 µM
same,TGI,786-0 renal,36.1 µM
same,TGI,NCI-H23 lung,37.4 µM
same,TGI,TK-10 renal,54.6 µM
same,TGI,SF-268 CNS,51.7 µM
same,TGI,HCT-15 colon,19.1 µM
same,TGI,RXF 393 renal,17.2 µM
same,TGI,SNB-19 CNS,31.8 µM
same,TGI,BT-549 breast,52.7 µM
same,TGI,SK-OV-3 ovarian,48.3 µM
same,TGI,HCT-116 colon,14.7 µM
same,TGI,KM12 colon,16.5 µM
same,TGI,OVCAR-5 ovarian,60.7 µM
same,TGI,M14 melanoma,18.4 µM
same,TGI,COLO 205 colon,40.7 µM
same,TGI,A498 renal,26.9 µM
same,TGI,MCF7 breast,30.3 µM
same,TGI,T-47D breast,35.7 µM
same,TGI,HCC-2998 colon,20.9 µM
same,TGI,U251 CNS,24.4 µM
same,TGI,SK-MEL-5 melanoma,12.8 µM
same,TGI,NCI-H460 lung,14.4 µM
same,TGI,IGROV1 ovarian,42.9 µM
same,TGI,SN12C renal,29.1 µM
same,TGI,SR leukemia,27.8 µM
same,TGI,OVCAR-3 ovarian,12 µM
same,TGI,MALME-3M melanoma,27.3 µM
same,TGI,MDA-MB-435,10.9 µM
same,TGI,PC-3 prostate,> 67.4 µM
same,TGI,HOP-62 NSCLC,18.1 µM
same,TGI,EKVX NSCLC,> 62 µM
same,TGI,HT29 colon,23 µM
same,TGI,SNB-75 CNS,53.1 µM
same,TGI,HOP-92 NSCLC,33.5 µM
same,TGI,UO-31 renal,46.6 µM
same,TGI,SF-539 CNS,6.93 µM
same,TGI,SW-620 colon,27.2 µM
same,TGI,A549 NSCLC,65.9 µM
same,TGI,UACC-257 melanoma,24.6 µM
same,TGI,DU-145 prostate,59.7 µM
same,TGI,NCI-H226 lung,18.4 µM
same,TGI,ACHN renal,> 84.7 µM
same,TGI,HL-60(TB) leukemia,> 38.1 µM
same,TGI,MOLT-4 leukemia,30.2 µM
same,TGI,OVCAR-4 ovarian,61.1 µM
